Experimental data published in the NIST ThermoML archive (doi:10.1016/j.jct.2016.05.021).
± gives the expanded uncertainty stated by the source.

Columns and labels:
[1] = xn = mol fraction of the nth substance listed; settings: 100 kPa, Liquid; for mass density: Vibrating tube method; for speed of sound: Frequency=3 MHz, Sing-around technique in a fixed-path interferometer
[2] = refractive index (Na D-line) (dimensionless); xn = mol fraction of the nth substance listed; settings: 100 kPa, Liquid, Standard Abbe refractometry

O=C1CCCN1 [2-pyrrolidinone] + CCCC[n+]1ccn(C)c1.O=S(=O)([N-]S(=O)(=O)C(F)(F)F)C(F)(F)F
Settings | mass density, 318.15 K [kg/m3] | mass density, 323.15 K [kg/m3] | refractive index, 298.15 K | refractive index, 303.15 K | refractive index, 308.15 K | refractive index, 313.15 K | refractive index, 318.15 K | refractive index, 323.15 K | speed of sound, 323.15 K [m/s]
[1], x2 = 0 | 1090.82 ± 1 | 1086.75 ± 1 | – | – | – | – | – | – | 1553.5 ± 1.4
[1], x2 = 0.1242 | 1182.35 ± 1 | 1176.91 ± 1 | – | – | – | – | – | – | 1420.2 ± 1.3
[1], x2 = 0.22 | 1231.34 ± 1 | 1225.78 ± 1 | – | – | – | – | – | – | 1362.6 ± 1.3
[1], x2 = 0.3191 | 1270.47 ± 1 | 1264.95 ± 1 | – | – | – | – | – | – | 1320.9 ± 1.3
[1], x2 = 0.4048 | 1298.28 ± 1 | 1292.83 ± 1 | – | – | – | – | – | – | 1292.9 ± 1.3
[1], x2 = 0.51 | 1326.8 ± 1 | 1321.44 ± 1 | – | – | – | – | – | – | 1264.6 ± 1.3
[1], x2 = 0.5945 | 1346.22 ± 1 | 1340.9 ± 1 | – | – | – | – | – | – | 1245.2 ± 1.3
[1], x2 = 0.7171 | 1370.46 ± 1 | 1365.25 ± 1 | – | – | – | – | – | – | 1220.5 ± 1.3
[1], x2 = 0.8383 | 1391.04 ± 1 | 1385.92 ± 1 | – | – | – | – | – | – | 1199.1 ± 1.3
[1], x2 = 0.9084 | 1401.82 ± 1 | 1396.86 ± 1 | – | – | – | – | – | – | 1187.6 ± 1.3
[2], x2 = 0 | – | – | 1.48591 ± 0.00033 | 1.48403 ± 0.00033 | 1.48218 ± 0.00033 | 1.48033 ± 0.00033 | 1.47841 ± 0.00033 | 1.47649 ± 0.00033 | –
[2], x2 = 0.1242 | – | – | 1.46742 ± 0.00033 | 1.46576 ± 0.00033 | 1.46414 ± 0.00033 | 1.46253 ± 0.00033 | 1.46087 ± 0.00033 | 1.4592 ± 0.00033 | –
[2], x2 = 0.22 | – | – | 1.45836 ± 0.00033 | 1.45679 ± 0.00033 | 1.45525 ± 0.00033 | 1.4537 ± 0.00033 | 1.45212 ± 0.00033 | 1.45051 ± 0.00033 | –
[2], x2 = 0.3191 | – | – | 1.45142 ± 0.00033 | 1.44988 ± 0.00033 | 1.44835 ± 0.00033 | 1.44683 ± 0.00033 | 1.44527 ± 0.00033 | 1.44369 ± 0.00033 | –
[2], x2 = 0.4048 | – | – | 1.44661 ± 0.00033 | 1.4451 ± 0.00033 | 1.44359 ± 0.00033 | 1.44209 ± 0.00033 | 1.44057 ± 0.00033 | 1.43902 ± 0.00033 | –
[2], x2 = 0.51 | – | – | 1.44176 ± 0.00033 | 1.44028 ± 0.00033 | 1.43881 ± 0.00033 | 1.43733 ± 0.00033 | 1.43584 ± 0.00033 | 1.43432 ± 0.00033 | –
[2], x2 = 0.5945 | – | – | 1.43844 ± 0.00033 | 1.43699 ± 0.00033 | 1.43554 ± 0.00033 | 1.43407 ± 0.00033 | 1.43261 ± 0.00033 | 1.4311 ± 0.00033 | –
[2], x2 = 0.7171 | – | – | 1.4343 ± 0.00033 | 1.43286 ± 0.00033 | 1.43142 ± 0.00033 | 1.42997 ± 0.00033 | 1.42853 ± 0.00033 | 1.42704 ± 0.00033 | –
[2], x2 = 0.8383 | – | – | 1.43075 ± 0.00033 | 1.42932 ± 0.00033 | 1.42789 ± 0.00033 | 1.42645 ± 0.00033 | 1.42499 ± 0.00033 | 1.42352 ± 0.00033 | –
[2], x2 = 0.9084 | – | – | 1.42892 ± 0.00033 | 1.42747 ± 0.00033 | 1.426 ± 0.00033 | 1.42456 ± 0.00033 | 1.42312 ± 0.00033 | 1.42164 ± 0.00033 | –
